# Test results taken from ChEMBL document CHEMBL1140730, “Validation of diacyl glycerolacyltransferase I as a novel target for the treatment of obesity and dyslipidemia using a potent and selective small molecule inhibitor” (J Med Chem, 2008).
# Columns and labels:
# [1] = biological target: T1, Diacylglycerol O-acyltransferase 1 (Homo sapiens, UniProt O75907); assay: Inhibition of human recombinant DGAT1 expressed in Sf9 cells
# T1 sequence (O75907 whole entry): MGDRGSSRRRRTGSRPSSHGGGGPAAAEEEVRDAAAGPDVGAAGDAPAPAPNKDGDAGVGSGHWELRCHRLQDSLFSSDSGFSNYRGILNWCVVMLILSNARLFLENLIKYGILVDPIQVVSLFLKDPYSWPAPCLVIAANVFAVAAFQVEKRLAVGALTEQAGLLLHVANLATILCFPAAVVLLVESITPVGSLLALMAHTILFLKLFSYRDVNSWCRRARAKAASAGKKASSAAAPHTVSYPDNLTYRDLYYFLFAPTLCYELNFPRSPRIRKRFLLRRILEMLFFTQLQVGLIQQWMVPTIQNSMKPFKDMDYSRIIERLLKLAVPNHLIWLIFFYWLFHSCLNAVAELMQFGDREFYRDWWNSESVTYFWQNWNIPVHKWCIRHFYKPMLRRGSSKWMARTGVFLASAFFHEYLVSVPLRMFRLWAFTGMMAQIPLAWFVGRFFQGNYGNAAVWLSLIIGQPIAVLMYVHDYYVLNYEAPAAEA
# [2] = biological target: T2, Diacylglycerol O-acyltransferase 1 (Mus musculus, UniProt Q9Z2A7); assay: Inhibition of mouse recombinant DGAT1 expressed in Sf9 cells
# T2 sequence (Q9Z2A7 whole entry): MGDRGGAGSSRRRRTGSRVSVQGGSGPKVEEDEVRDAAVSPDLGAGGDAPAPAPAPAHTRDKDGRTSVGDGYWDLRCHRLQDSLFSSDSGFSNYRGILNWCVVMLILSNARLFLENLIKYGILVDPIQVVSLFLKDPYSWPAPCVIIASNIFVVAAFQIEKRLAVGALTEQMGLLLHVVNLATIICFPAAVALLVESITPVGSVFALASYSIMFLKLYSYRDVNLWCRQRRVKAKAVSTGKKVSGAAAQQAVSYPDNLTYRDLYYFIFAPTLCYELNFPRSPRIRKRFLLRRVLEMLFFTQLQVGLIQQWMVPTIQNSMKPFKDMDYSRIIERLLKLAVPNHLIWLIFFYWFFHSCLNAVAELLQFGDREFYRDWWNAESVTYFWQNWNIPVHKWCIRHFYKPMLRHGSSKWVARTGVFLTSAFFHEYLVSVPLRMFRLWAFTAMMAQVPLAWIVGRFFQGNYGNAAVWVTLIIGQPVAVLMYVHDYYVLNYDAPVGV
SMILES,IC50 [1] [nM],IC50 [2] [nM]
O=C(Nc1ccc(-c2ccc(C(=O)[C@@H]3CCC[C@H]3C(=O)O)cc2)cc1)Nc1cccc(C(F)(F)F)c1,–,17
O=C(O)[C@@H]1CCC[C@H]1C(=O)c1ccc(-c2ccc(Nc3nc4ccc(OC(F)(F)F)cc4s3)c(F)c2)cc1,–,207
O=C(Nc1ccc(-c2ccc(C(=O)[C@@H]3CCC[C@H]3C(=O)O)cc2)cc1)Nc1cc(C(F)(F)F)ccc1F,–,21

# Results, then the molecule that gave them:
IC50 [1] [nM],IC50 [2] [nM],SMILES
98,–,O=C(Nc1ccccc1)Nc1ccc(-c2ccc(C(=O)[C@@H]3CCC[C@@H]3C(=O)O)cc2)cc1
–,19,O=C(Nc1ccc(-c2ccc(C(=O)[C@@H]3CCC[C@H]3C(=O)O)cc2)cc1)Nc1cccc(Cl)c1
–,603,N#Cc1ccc(NC(=O)Nc2ccc(-c3ccc(C(=O)[C@@H]4CCC[C@H]4C(=O)O)cc3)cc2)cc1
